{
  "source": "patent US20240252546A1",
  "about": "“NEURITE OUTGROWTH PROMOTION KIT AND USE THEREFOR” (KEIO UNIVERSITY, priority 2021, published 2024)",
  "format_in_all_cases": "cell-based, human",
  "key": {"p38": {"tested_on": "p38", "assay": "Expression level of p38 by RNA-seq (Experimental Example 3)", "conditions": "201B7 neurospheres, vs control", "description": "FIG. 6 is a graph showing the results obtained by treating the neurosphere derived from 201B7 cells with each of DAPT and Compound 34, carrying out the RNA-seq analysis, and quantifying the expression level of p38 based on transcriptome data."}, "GADD45G": {"tested_on": "GADD45G", "assay": "Expression level of GADD45G in treated neurospheres by RNA-seq (Experimental Example 2)", "conditions": "vs control", "method": "Neurospheres derived from 201B7 cells, which are cells of a human iPS cell line, were prepared in the same manner as in Experimental Example 1.\nIn addition, neurospheres derived from 414C2 cells, which are cells of a human iPS cell line, were prepared according to the following method. First, 414C2 cells were subjected to adhesion culture for 12 days together with fibroblasts derived from a mouse embryo. Subsequently, the cells were subjected to suspension culture for 30 days to form a germ layer body. Subsequently, the aggregated cells were dissociated, cultured in a culture medium obtained by adding 20 ng/ml of FGF2 (PeproTech, Inc.) to an MHM medium of which the composition is shown in Table 1 above, and differentiated into neurospheres.\nSubsequently, each neurosphere derived from iPS cells was treated with each of DAPT and Compound 34. Subsequently, one neurosphere having a diameter of about 100 μm was selected from the neurospheres in each group and subjected to an RNA-seq analysis.\nFIG. 3 is a graph showing the results obtained by treating the neurosphere derived from 201B7 cells with each of DAPT and Compound 34, carrying out the RNA-seq analysis, and quantifying the expression level of GADD45G based on transcriptome data. In FIG. 3, “Ctl” indicates the result obtained from the control, “DAPT” indicates the result obtained by the DAPT treatment, and “C. 34” indicates the result obtained by Compound 34 treatment."}, "phosphorylated CDC25B": {"tested_on": "phosphorylated CDC25B", "assay": "Phosphorylated CDC25B in nerve cells after inducing differentiation (Experimental Example 12)", "conditions": "201B7 neurospheres treated 24 hours, differentiated 14 days; compared with the untreated case", "method": "Neurospheres were treated with DAPT or Compound 34, and the amount of phosphorylated CDC25B after inducing differentiation into nerve cells was examined.\nNeurospheres derived from 201B7 cells, which are cells of a human iPS cell line, were prepared in the same manner as in Experimental Example 1. Subsequently, each neurosphere was cultured for 24 hours in the presence of each of DAPT and Compound 34. DAPT and Compound 34 were used at the same concentrations as in Experimental Example 1.\nSubsequently, each neurosphere was seeded on a 48-well chamber slide (IWAKI & CO., LTD.) coated with poly-L-ornithine/fibronectin, cultured for 14 days in a culture medium containing no growth factor at 37° C. in an environment of 95% air and 5% CO2, and differentiated into nerve cells.\nSubsequently, each of the obtained nerve cells was fixed with 4% paraformaldehyde and subjected to immunostaining of each of βIII-tubulin, which is a nerve cell marker, and phosphorylated CDC25B.\nFIGS. 20(a) to 20(f) show fluorescence photomicrographs showing the representative results of immunostaining. The scale bar is 100 μm. […]"}, "[1]": {"conditions": "neurosphere derived from 201B7 cells"}, "[2]": {"conditions": "neurosphere derived from 414C2 cells"}},
  "data": [
    {"smiles": "O=C1Nc2ccccc2C(c2ccccc2)=N[C@@H]1NC(=O)[C@H](c1ccc(F)cc1)[C@@H](CO)c1ccc(F)c(F)c1", "note": "[Compound 34]", "values": [
      {"measurement": "expression level of p38", "setting": "p38", "result": "not increased"},
      {"measurement": "expression of GADD45G", "setting": "GADD45G; [1]", "result": "significantly increased"},
      {"measurement": "expression of GADD45G", "setting": "GADD45G; [2]", "result": "significantly increased"},
      {"measurement": "amount of phosphorylated CDC25B after inducing differentiation into nerve cells", "setting": "phosphorylated CDC25B", "result": "increased"}
    ]},
    {"smiles": "C[C@H](NC(=O)Cc1cc(F)cc(F)c1)C(=O)N[C@H](C(=O)OC(C)(C)C)c1ccccc1", "note": "[DAPT]", "values": [
      {"measurement": "expression level of p38", "setting": "p38", "result": "not increased"},
      {"measurement": "expression of GADD45G", "setting": "GADD45G; [1]", "result": "significantly increased"},
      {"measurement": "expression of GADD45G", "setting": "GADD45G; [2]", "result": "significantly increased"},
      {"measurement": "amount of phosphorylated CDC25B after inducing differentiation into nerve cells", "setting": "phosphorylated CDC25B", "result": "increased"}
    ]}
  ]
}
